Measured values reported in US20230338572A1, “ANTI-TM4SF1 ANTIBODY-DRUG CONJUGATES COMPRISING CLEAVABLE LINKERS AND METHODS OF USING SAME” (Angiex, Inc., priority 2020, published 2023).

Key:
MS1 = experiment: In vitro cell proliferation inhibition assay (Example 10); format: cell-based, mouse; settings: free drug/linker payload, 5 days
Procedure: (§1) The effects of antibody drug-conjugates (drug to antibody ratio (DAR) varying from 0.9 to 3.5) containing a drug (maytansine or camptothecin) assessed in cultured mouse (MS1) and human (HUVEC, and MiaPaCa2) cells. The structures of the ADC tested are listed in Table 8 and shown in FIG. 19 (ADC) and FIG. 26 (ADC2, ADC3, and ADC4). Both Exemplary Antibody 1 and Exemplary Antibody 2 contain human IgG1 constant region with YTEC mutation. Cells were incubated for 5 days with the antibody drug conjugate before assessing cell viability on day 5.
(§2) In this experiment, different payloads were respectively assessed in cultured mouse (MS1) and human (MiaPaCa2 and HUVEC) cells. Cells were treated incubated for 5 days with the antibody drug conjugate before assessing cell viability on day 5.

HUVEC = experiment: as above; format: cell-based, human; settings: free drug/linker payload, 5 days
Procedure: as §1, §2

[1] = cited from earlier work
MiaPaCa2 = experiment: In vitro cell proliferation inhibition assay (Example 10); format: cell-based, human; settings: free drug/linker payload; 5 days
Procedure: as §1, §2

[2] = target: T1, human TM4SF1 (transmembrane-4 L six family member-1), on HUVEC cells (UniProt P30408 1-202); experiment: flow cytometry, HUVEC
T1 chain: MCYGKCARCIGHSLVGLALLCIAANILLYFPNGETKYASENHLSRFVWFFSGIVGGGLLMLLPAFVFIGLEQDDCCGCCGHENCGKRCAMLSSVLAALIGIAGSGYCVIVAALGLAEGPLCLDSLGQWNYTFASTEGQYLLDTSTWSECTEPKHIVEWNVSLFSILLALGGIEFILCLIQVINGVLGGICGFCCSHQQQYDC

`CC[C@@]1(O)C(=O)OCc2c1cc1n(c2=O)Cc2cc3ccccc3nc2-1` [payload 3, Camptothecin] showed an EC50 (MS1; Mus musculus, MS-1, 120 h) of 34.3 nM and an EC50 (HUVEC; Homo sapiens, HUVEC, 120 h) of 1.89 nM.

In the case of Combretastatin [CA4P], the Overall survival ([1]; Phase II FALCON study, reduced from 16.2) is listed as 13.6 months and the “Patients who experienced heart attacks while being treated” value ([1]; human, in vivo) is listed as “seven”.

Work on “Maleimide-ethylamino-nosyl-Ahx-Maytansine [payload 1]” yielded an EC50 (HUVEC) of 0.114 nM and an EC50 (MiaPaCa2) of 0.0395 nM.

“Maleimide-tetrazine-PEG3-methyl-EDA-nosyl-Camptothecin [payload 2]” showed an EC50 (MS1) of 6710 nM and an EC50 (HUVEC) of 1450 nM.

B1: AGX-A07 "YTEC" variant (anti-TM4SF1 antibody AGX-A07 with Fc mutations N297C, M252Y, S254T and T256E), naked antibody (antibody, V domains shown)
VH: QIQLVQSGPELKKPGETVKISCKASGYTFTNYGVKWVKQAPGKDLKWMGWINTYTGNPIYAADFKGRFAFSLETSASTAFLQINNLKNEDTATYFCVRFQYGDYRYFDVWGAGTTVTVSS
VL: QIILSQSPAILSASPGEKVTMTCRANSGISFINWYQQKPGSSPKPWIYGTANLASGVPARFGGSGSGTSYSLTISRVEAEDAATYYCQQWSSNPLTFGAGTKLELR
In the case of B1, the EC50 [2] is reported as 1.75 nM.
